Test results from article PMC3901077 (Journal of medicinal chemistry, 2010).
Read-outs that look alike come from different tables or passages of the source.

Assays:
[1] = test system: A549 human lung carcinoma cells; assay: MTT cytotoxicity assay in A549 cells; format: cell-based; conditions: IC50 versus CPT

Structure (SMILES)	CPT reconversion rate (rank among prodrugs) (PB pH 6.6, 7.0 and 7.4)	time for ester bond hydrolysis (PB pH 6.6, 37 °C) [h]	time for ester bond hydrolysis (PB pH 7.0, 37 °C)	time for ester bond hydrolysis (PB pH 7.4, 37 °C) [h]	fold less potent than parent drug (CPT) [1]	stability (rank among prodrugs) (PB pH 6.6, 7.0 and 7.4)
CC[C@@]1(OC(=O)CN)C(=O)OCc2c1cc1n(c2=O)Cc2cc3ccccc3nc2-1 [Prodrug 2a]	fastest	≤ 96	≤ 96 h	≤ 72	about 2 fold	
CC[C@@]1(OC(=O)[C@@H](C)N)C(=O)OCc2c1cc1n(c2=O)Cc2cc3ccccc3nc2-1 [Prodrug 2b]		96	96 h	≤ 72	~20 fold	
CC[C@@H](N)C(=O)O[C@]1(CC)C(=O)OCc2c1cc1n(c2=O)Cc2cc3ccccc3nc2-1 [Prodrug 2c]		120	~ 120 h	≤ 96		
CCC[C@@H](N)C(=O)O[C@]1(CC)C(=O)OCc2c1cc1n(c2=O)Cc2cc3ccccc3nc2-1 [Prodrug 2d]		144	≤ 120 h	≤ 120		most stable
